Structures can show the parent of a compound that is named as a salt.

Data set [1] has as its target calcium channel (ileum) (Rattus norvegicus, UniProt P22002). Kind of data set: In vitro calcium channel antagonistic effect (ileum): inhibition of high potassium contraction of ileum samples. Particulars: high potassium (45.0 mM KCl) contraction, 10^−7 M test compound, 30 minute pretreatment, read-out: Inhibition rate (%) (conc.: 10^−7M). Here is the method:
In vitro calcium channel antagonistic effect (ileum)
(§1) The ileum of each of male Crj:CD rats (8 to 12 weeks old) was extracted at a part 3 cm apart from the ileocecal region. The ileum sample was suspended in 37° C. Tyrode's solution through which a gaseous mixture (95% of oxygen and 5% of carbon dioxide) was passed. For examining the change in tensile strength of the ileum, the isotonicity thereof was recorded on a pen-writing recorder through a transducer. The high potassium contraction was caused by exchanging the nutrient solution from Tyrode's solution to potassium-Tyrode's solution (94.6 mM of NaCl, 45.0 mM of KCl, 1.8 mM of CaCl2, 1.04 mM of MgCl2, 0.4 mM of NaH2PO4, 11.9 mM of NaHCO3 and 5.55 mM of glucose). The high potassium contraction-inhibiting effect of a test compound was evaluated by 30 minute pretreatment. Compound A described in European Patent No. 0404359A1 and compound B described in International Patent No. 9733885A1 were used as comparative substances. The calcium channel antagonistic activity was shown as the rate (%) of inhibition of control of high-calcium contraction with 10^−7 M test compound.

The target of data set [2] is calcium channel (blood vessel, thoracic aorta) (Rattus norvegicus, UniProt P22002). The data set is described as follows: In vitro calcium channel antagonistic effect (blood vessel): inhibition of high potassium contraction of helical thoracic aorta samples. Particulars: high potassium (45.0 mM KCl) contraction, 10^−7 M test compound, 30 minute pretreatment, read-out: Inhibition rate (%) (conc: 10^−7 M). Here is the method: In vitro calcium channel antagonistic effect (blood vessel)
calcium channel (blood vessel, thoracic aorta), sequence (P22002 whole entry): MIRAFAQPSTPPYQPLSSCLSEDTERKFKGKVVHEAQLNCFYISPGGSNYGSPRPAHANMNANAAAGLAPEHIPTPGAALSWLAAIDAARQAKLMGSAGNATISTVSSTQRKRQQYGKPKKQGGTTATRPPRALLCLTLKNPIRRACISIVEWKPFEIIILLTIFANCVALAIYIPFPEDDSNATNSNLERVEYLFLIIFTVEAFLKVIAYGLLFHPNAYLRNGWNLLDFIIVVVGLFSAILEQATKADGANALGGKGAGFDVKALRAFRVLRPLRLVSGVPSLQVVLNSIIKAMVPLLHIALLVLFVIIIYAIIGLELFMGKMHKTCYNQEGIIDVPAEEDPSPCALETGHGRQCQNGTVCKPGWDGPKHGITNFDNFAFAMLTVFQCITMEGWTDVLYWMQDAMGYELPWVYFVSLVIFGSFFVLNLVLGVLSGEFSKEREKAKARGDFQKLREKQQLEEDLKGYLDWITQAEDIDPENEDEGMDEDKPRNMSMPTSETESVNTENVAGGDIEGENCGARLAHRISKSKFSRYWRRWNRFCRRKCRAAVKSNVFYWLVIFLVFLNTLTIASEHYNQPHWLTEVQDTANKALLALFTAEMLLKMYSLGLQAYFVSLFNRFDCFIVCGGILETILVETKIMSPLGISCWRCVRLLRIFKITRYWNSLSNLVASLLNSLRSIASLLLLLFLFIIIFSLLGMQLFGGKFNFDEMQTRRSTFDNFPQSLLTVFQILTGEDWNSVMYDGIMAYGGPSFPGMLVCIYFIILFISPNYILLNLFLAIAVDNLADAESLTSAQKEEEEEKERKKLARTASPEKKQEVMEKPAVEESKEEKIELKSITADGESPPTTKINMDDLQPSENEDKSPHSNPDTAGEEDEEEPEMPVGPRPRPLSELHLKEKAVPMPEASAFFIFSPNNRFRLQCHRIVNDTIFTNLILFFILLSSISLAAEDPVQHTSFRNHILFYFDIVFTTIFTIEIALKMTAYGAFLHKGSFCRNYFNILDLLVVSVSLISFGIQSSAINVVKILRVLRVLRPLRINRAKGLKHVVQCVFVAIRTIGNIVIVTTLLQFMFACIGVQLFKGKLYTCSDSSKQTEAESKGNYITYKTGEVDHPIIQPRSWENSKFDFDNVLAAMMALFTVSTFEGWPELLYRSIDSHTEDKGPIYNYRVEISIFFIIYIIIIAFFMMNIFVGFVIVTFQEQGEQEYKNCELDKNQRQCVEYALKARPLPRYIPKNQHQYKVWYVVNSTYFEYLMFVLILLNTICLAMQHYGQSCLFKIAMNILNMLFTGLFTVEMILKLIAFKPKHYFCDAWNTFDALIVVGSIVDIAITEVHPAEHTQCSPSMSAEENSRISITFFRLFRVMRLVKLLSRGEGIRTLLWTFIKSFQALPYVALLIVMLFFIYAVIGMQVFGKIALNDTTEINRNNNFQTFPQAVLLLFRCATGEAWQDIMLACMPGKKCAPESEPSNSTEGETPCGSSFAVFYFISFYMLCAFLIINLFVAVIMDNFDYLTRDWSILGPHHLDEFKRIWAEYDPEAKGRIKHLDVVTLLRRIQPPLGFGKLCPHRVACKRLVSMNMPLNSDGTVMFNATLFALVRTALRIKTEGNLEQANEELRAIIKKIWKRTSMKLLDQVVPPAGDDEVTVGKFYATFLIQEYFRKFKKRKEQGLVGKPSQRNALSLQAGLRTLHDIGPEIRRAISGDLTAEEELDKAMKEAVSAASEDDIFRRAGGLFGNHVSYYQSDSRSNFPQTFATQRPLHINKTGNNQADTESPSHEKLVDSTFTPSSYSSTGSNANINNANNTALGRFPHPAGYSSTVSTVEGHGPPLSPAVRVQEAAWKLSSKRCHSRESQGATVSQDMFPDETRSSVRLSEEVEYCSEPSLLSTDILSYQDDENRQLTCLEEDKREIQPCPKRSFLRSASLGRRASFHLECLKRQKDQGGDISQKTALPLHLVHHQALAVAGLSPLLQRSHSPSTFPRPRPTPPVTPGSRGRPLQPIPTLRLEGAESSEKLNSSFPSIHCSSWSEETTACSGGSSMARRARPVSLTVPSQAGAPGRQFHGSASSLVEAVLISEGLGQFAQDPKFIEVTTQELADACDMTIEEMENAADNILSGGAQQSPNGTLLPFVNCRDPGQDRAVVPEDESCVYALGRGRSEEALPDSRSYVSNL
as §1, with “thoracic aorta was extracted from” for “ileum of”, “to prepare helical samples.” for “was extracted at a part 3 cm apart from the ileocecal region.”, “blood vessel samples were” for “ileum sample was”, “blood vessel,” for “ileum,”, “isometry” for “isotonicity”

calcium channel (ileum), sequence (P22002 whole entry): as above

Broadly, the inhibition is the relative decrease from the control value, in per cent. With `COc1ccc(CCN2CCCC2CN2c3ccccc3CSc3ccccc32)cc1` (centres unmarked) [Compound A, reference compound], the inhibition at 0.1 µM in data set [1] turned out to be 48%; in data set [2], 9%.
With `COc1ccc(CCN2CCC[C@@H]2CN2c3ccccc3COc3ccccc32)cc1` [Compound B, reference compound], the values for the inhibition at 0.1 µM in data set [1] and in data set [2] were 67% and 17%, respectively.
Usually melting point stands for the temperature, or range, at which the solid turns liquid. For the compound `COc1ccc(CCN2CCCC[C@@H]2CN2c3ccccc3COc3ccccc32)cc1.Cl` [Example 1, (R)-5,11-Dihydro-5-[1-(4-methoxyphenethyl)piperidine-2-ylmethyl]dibenzo[b,e][1,4]oxazepine Hydrochloride], the melting point is 199 to 201 °C. For the same compound, in data set [1], the inhibition at 0.1 µM stood at 90%. In data set [2], the inhibition at 0.1 µM turned out to be 38%.
Take `COc1cccc(CCN2CCCC[C@@H]2CN2c3ccccc3COc3ccccc32)c1` [Example 3, (R)-5,11-Dihydro-5-[1-(3-methoxyphenethyl)piperidine-2-ylmethyl] dibenzo[b,e][1,4]oxazepine Hydrochloride]: the inhibition at 0.1 µM in data set [1] was 61%; in data set [2], 33%.
The like results for `COc1ccc(CCCN2CCCC[C@@H]2CN2c3ccccc3COc3ccccc32)cc1` [Example 4, (R)-5,11-Dihydro-5-[1-[3-(4-methoxyphenyl)propyl]piperidine-2-ylmethyl]dibenzo[b,e][1,4]oxazepine Hydrochloride] were, in that order, 64% and 32%.
With `c1ccc2c(c1)COc1ccccc1N2C[C@H]1CCCCN1CCc1ccc2c(c1)OCO2` [Example 5, (R)-5,11-Dihydro-5-[1-(3,4-methylenedioxyphenethyl)piperidine-2-yl-methyl] dibenzo[b,e][1,4]oxazepine Hydrochloride], the inhibition at 0.1 µM in data set [1] was 66%; in data set [2], 27%.
Take `Clc1ccc(CCN2CCCC[C@@H]2CN2c3ccccc3COc3ccccc32)cc1` [Example 6, (R)-5-[1-(4-chlorophenethyl)piperidine-2-ylmethyl]-5,11-dihydrodibenzo [b,e][1,4]oxazepine Hydrochloride]: the inhibition at 0.1 µM stood at 75% in data set [1] and 25% in data set [2].
As to `CN(C)c1ccc(CCN2CCCC[C@@H]2CN2c3ccccc3COc3ccccc32)cc1` [Example 7, (R)-5,11-Dihydro-5-[1-(4-dimethylaminophenethyl)piperidine-2-ylmethyl]dibenzo[b,e][1,4]oxazepine Dihydrochloride], the inhibition at 0.1 µM came out at 78% in data set [1] and 23% in data set [2].
`COc1ccc(CCN2CC[C@@H](N3c4ccccc4COc4ccccc43)C2)cc1.Cl` [Example 8, (R)-5,11-Dihydro-5-[1-(4-methoxyphenethyl)pyrrolidine-3-yl] dibenzo[b,e][1,4]oxazepine Hydrochloride] had a melting point of 224 to 226 °C. Also, the inhibition at 0.1 µM in data set [1] was 100%. Also, in data set [2], the inhibition at 0.1 µM was determined as 52%.
The compound `CN(C)c1ccc(CCN2CC[C@@H](N3c4ccccc4COc4ccccc43)C2)cc1.Cl` [Example 10, (R)-5,11-Dihydro-5-[1-(4-dimethylaminophenethyl)pyrrolidine-3-yl]dibenzo[b,e][1,4]oxazepine Hydrochloride] showed a melting point of 219 to 220 °C. In addition, the inhibition at 0.1 µM in data set [1] was 116%. Further, the inhibition at 0.1 µM in data set [2] is 59%.
As for `COc1ccc(CCCN2CC[C@@H](N3c4ccccc4COc4ccccc43)C2)cc1` [Example 11, (R)-5,11-Dihydro-5-[1-[3-(4-methoxyphenyl)propyl]pyrrolidine-3-yl]dibenzo[b,e][1,4]oxazepine Hydrochloride], the inhibition at 0.1 µM was determined as 83% in data set [1] and 61% in data set [2].
With `c1ccc2c(c1)COc1ccccc1N2[C@@H]1CCN(CCc2ccc3c(c2)OCO3)C1` [Example 12, (R)-5,11-Dihydro-5-[1-(3,4-methylenedioxyphenethyl)pyrrolidine-3-yl]dibenzo[b,e][1,4]oxazepine Hydrochloride], the inhibition at 0.1 µM was found to be 77% in data set [1] and 51% in data set [2].
For the compound `Clc1ccc(CCN2CC[C@@H](N3c4ccccc4COc4ccccc43)C2)cc1` [Example 13, (R)-5-[1-(4-chlorophenethyl)pyrrolidine-3-yl]-5,11-dihydrodibenzo[b,e][1,4] oxazepine Hydrochloride], the inhibition at 0.1 µM worked out at 76% in data set [1] and 38% in data set [2].
The compound `COc1ccc(CCN(C)CCN2c3ccccc3COc3ccccc32)cc1.Cl` [Example 14, 5,11-Dihydro-5-[2-[N-(4-methoxyphenethyl)-N-methylamino]ethyl]dibenzo[b,e][1,4]oxazepine Hydrochloride] yielded a melting point of 139 to 140 °C. The inhibition at 0.1 µM in data set [1] is 105%. In data set [2], the inhibition at 0.1 µM is 43%.
With `COc1cccc(CCN(C)CCN2c3ccccc3COc3ccccc32)c1` [Example 15, 5,11-Dihydro-5-[2-[N-(3-methoxyphenethyl)-N-methylamino]ethyl]dibenzo[b,e][1,4]oxazepine Hydrochloride], the inhibition at 0.1 µM in data set [1] came to 82%; in data set [2], 29%.
For the compound `COc1ccc(CCCN(C)CCN2c3ccccc3COc3ccccc32)cc1` [Example 16, 5,11-Dihydro-5-[2-[N -[3-(4-methoxyphenyl)propyl]-N-methylamino]ethyl]dibenzo[b,e][1,4]oxazepine Hydrochloride], the inhibition at 0.1 µM in data set [1] was 82%; in data set [2], 28%.
For the compound `CN(CCc1ccc2c(c1)OCO2)CCN1c2ccccc2COc2ccccc21` [Example 17, 5,11-Dihydro-5-[2-[N-methyl-N-(3,4-methylenedioxyphenethyl)amino]ethyl]dibenzo[b,e][1,4]oxazepine Hydrochloride], the figures for the inhibition at 0.1 µM in data set [1] and in data set [2] were 78% and 30%, respectively.
With `CN(CCc1ccc(Cl)cc1)CCN1c2ccccc2COc2ccccc21` [Example 18, 5-[2-[N-(4-chlorophenethyl)-N-methylamino]ethyl]-5,11-dihydrodibenzo [b,e][1,4]oxazepine Hydrochloride], the inhibition at 0.1 µM in data set [1] stood at 70%; in data set [2], 34%.
Regarding `CN(CCc1ccc(N(C)C)cc1)CCN1c2ccccc2COc2ccccc21` [Example 19, 5,11-Dihydro-5-[2-[N-(4-dimethylaminophenethyl)-N-methylamino]ethyl]dibenzo[b,e][1,4]oxazepine Dihydrochloride], the inhibition at 0.1 µM came out at 76% in data set [1] and 39% in data set [2].
In the same order, the values of `CN(CCc1cccc(N(C)C)c1)CCN1c2ccccc2COc2ccccc21` [Example 20, 5,11-Dihydro-5-[2-[N-(3-dimethylaminophenethyl)-N-methylamino]ethyl]dibenzo[b,e][1,4]oxazepine Dihydrochloride] are 50% and 28%.

These data come from patent US6528504B2, “Oxazepine derivatives and medicine containing the same” (Ajinomoto Co., Inc., priority 1999, dated 2003).
